Measured values published in the OligoGym collection.
Oligonucleotides are given in HELM: sugar(base)linkage, 5' to 3'; d 2'-deoxyribose, r ribose, m 2'-O-methylribose, p phosphate. ss, as = sense and antisense strand

The substances below were run against Cacnb1 (rat) (assay: reporter assay of Huesken 2005). Conditions: siRNA.
Also: test concentration or dose not given here.

Substance	normalised inhibition (eCFP-eYFP dual reporter)
RNA1{r(A)p.r(A)p.r(C)p.r(C)p.r(A)p.r(A)p.r(U)p.r(U)p.r(G)p.r(G)p.r(A)p.r(A)p.r(G)p.r(A)p.r(U)p.r(G)p.r(C)p.r(C)p.r(U)p.d(T)p.d(T)}|RNA2{r(A)p.r(G)p.r(G)p.r(C)p.r(A)p.r(U)p.r(C)p.r(U)p.r(U)p.r(C)p.r(C)p.r(A)p.r(A)p.r(U)p.r(U)p.r(G)p.r(G)p.r(U)p.r(U)p.d(C)p.d(T)}$$$RNA1{StrandType:ss}|RNA2{StrandType:as}$	50%
RNA1{r(A)p.r(A)p.r(G)p.r(A)p.r(A)p.r(U)p.r(G)p.r(A)p.r(G)p.r(C)p.r(U)p.r(G)p.r(G)p.r(A)p.r(G)p.r(G)p.r(G)p.r(C)p.r(U)p.d(T)p.d(T)}|RNA2{r(A)p.r(G)p.r(C)p.r(C)p.r(C)p.r(U)p.r(C)p.r(C)p.r(A)p.r(G)p.r(C)p.r(U)p.r(C)p.r(A)p.r(U)p.r(U)p.r(C)p.r(U)p.r(U)p.d(A)p.d(T)}$$$RNA1{StrandType:ss}|RNA2{StrandType:as}$	54.2%
RNA1{r(C)p.r(U)p.r(G)p.r(A)p.r(G)p.r(G)p.r(U)p.r(A)p.r(C)p.r(A)p.r(G)p.r(A)p.r(G)p.r(U)p.r(G)p.r(A)p.r(A)p.r(A)p.r(U)p.d(T)p.d(T)}|RNA2{r(A)p.r(U)p.r(U)p.r(U)p.r(C)p.r(A)p.r(C)p.r(U)p.r(C)p.r(U)p.r(G)p.r(U)p.r(A)p.r(C)p.r(C)p.r(U)p.r(C)p.r(A)p.r(G)p.d(C)p.d(C)}$$$RNA1{StrandType:ss}|RNA2{StrandType:as}$	59.1%
RNA1{r(G)p.r(C)p.r(A)p.r(G)p.r(A)p.r(G)p.r(U)p.r(C)p.r(C)p.r(U)p.r(A)p.r(C)p.r(A)p.r(C)p.r(G)p.r(A)p.r(G)p.r(C)p.r(C)p.d(T)p.d(T)}|RNA2{r(G)p.r(G)p.r(C)p.r(U)p.r(C)p.r(G)p.r(U)p.r(G)p.r(U)p.r(A)p.r(G)p.r(G)p.r(A)p.r(C)p.r(U)p.r(C)p.r(U)p.r(G)p.r(C)p.d(T)p.d(G)}$$$RNA1{StrandType:ss}|RNA2{StrandType:as}$	79.4%
RNA1{r(G)p.r(U)p.r(A)p.r(C)p.r(U)p.r(G)p.r(C)p.r(A)p.r(G)p.r(A)p.r(G)p.r(G)p.r(C)p.r(U)p.r(C)p.r(A)p.r(U)p.r(C)p.r(A)p.d(T)p.d(T)}|RNA2{r(U)p.r(G)p.r(A)p.r(U)p.r(G)p.r(A)p.r(G)p.r(C)p.r(C)p.r(U)p.r(C)p.r(U)p.r(G)p.r(C)p.r(A)p.r(G)p.r(U)p.r(A)p.r(C)p.d(C)p.d(T)}$$$RNA1{StrandType:ss}|RNA2{StrandType:as}$	73.6%
RNA1{r(U)p.r(C)p.r(G)p.r(G)p.r(G)p.r(A)p.r(G)p.r(G)p.r(C)p.r(U)p.r(G)p.r(G)p.r(U)p.r(G)p.r(A)p.r(A)p.r(G)p.r(G)p.r(A)p.d(T)p.d(T)}|RNA2{r(U)p.r(C)p.r(C)p.r(U)p.r(U)p.r(C)p.r(A)p.r(C)p.r(C)p.r(A)p.r(G)p.r(C)p.r(C)p.r(U)p.r(C)p.r(C)p.r(C)p.r(G)p.r(A)p.d(T)p.d(C)}$$$RNA1{StrandType:ss}|RNA2{StrandType:as}$	73.7%
RNA1{r(A)p.r(G)p.r(C)p.r(A)p.r(A)p.r(C)p.r(C)p.r(A)p.r(C)p.r(C)p.r(C)p.r(A)p.r(C)p.r(C)p.r(U)p.r(G)p.r(G)p.r(C)p.r(C)p.d(T)p.d(T)}|RNA2{r(G)p.r(G)p.r(C)p.r(C)p.r(A)p.r(G)p.r(G)p.r(U)p.r(G)p.r(G)p.r(G)p.r(U)p.r(G)p.r(G)p.r(U)p.r(U)p.r(G)p.r(C)p.r(U)p.d(G)p.d(G)}$$$RNA1{StrandType:ss}|RNA2{StrandType:as}$	31.6%
RNA1{r(C)p.r(C)p.r(A)p.r(A)p.r(G)p.r(G)p.r(A)p.r(C)p.r(U)p.r(U)p.r(C)p.r(C)p.r(U)p.r(G)p.r(C)p.r(A)p.r(C)p.r(A)p.r(U)p.d(T)p.d(T)}|RNA2{r(A)p.r(U)p.r(G)p.r(U)p.r(G)p.r(C)p.r(A)p.r(G)p.r(G)p.r(A)p.r(A)p.r(G)p.r(U)p.r(C)p.r(C)p.r(U)p.r(U)p.r(G)p.r(G)p.d(G)p.d(C)}$$$RNA1{StrandType:ss}|RNA2{StrandType:as}$	63.2%
RNA1{r(G)p.r(A)p.r(G)p.r(U)p.r(G)p.r(A)p.r(A)p.r(A)p.r(U)p.r(C)p.r(G)p.r(A)p.r(G)p.r(C)p.r(G)p.r(G)p.r(A)p.r(U)p.r(C)p.d(T)p.d(T)}|RNA2{r(G)p.r(A)p.r(U)p.r(C)p.r(C)p.r(G)p.r(C)p.r(U)p.r(C)p.r(G)p.r(A)p.r(U)p.r(U)p.r(U)p.r(C)p.r(A)p.r(C)p.r(U)p.r(C)p.d(T)p.d(G)}$$$RNA1{StrandType:ss}|RNA2{StrandType:as}$	84.9%
RNA1{r(U)p.r(G)p.r(G)p.r(A)p.r(C)p.r(A)p.r(G)p.r(C)p.r(C)p.r(U)p.r(U)p.r(C)p.r(G)p.r(C)p.r(C)p.r(U)p.r(G)p.r(C)p.r(U)p.d(T)p.d(T)}|RNA2{r(A)p.r(G)p.r(C)p.r(A)p.r(G)p.r(G)p.r(C)p.r(G)p.r(A)p.r(A)p.r(G)p.r(G)p.r(C)p.r(U)p.r(G)p.r(U)p.r(C)p.r(C)p.r(A)p.d(G)p.d(T)}$$$RNA1{StrandType:ss}|RNA2{StrandType:as}$	39.5%
RNA1{r(G)p.r(U)p.r(G)p.r(C)p.r(C)p.r(A)p.r(A)p.r(A)p.r(C)p.r(A)p.r(G)p.r(A)p.r(A)p.r(G)p.r(C)p.r(A)p.r(G)p.r(A)p.r(A)p.d(T)p.d(T)}|RNA2{r(U)p.r(U)p.r(C)p.r(U)p.r(G)p.r(C)p.r(U)p.r(U)p.r(C)p.r(U)p.r(G)p.r(U)p.r(U)p.r(U)p.r(G)p.r(G)p.r(C)p.r(A)p.r(C)p.d(T)p.d(G)}$$$RNA1{StrandType:ss}|RNA2{StrandType:as}$	82.1%
RNA1{r(U)p.r(G)p.r(G)p.r(U)p.r(G)p.r(G)p.r(G)p.r(A)p.r(C)p.r(C)p.r(A)p.r(U)p.r(C)p.r(G)p.r(C)p.r(U)p.r(C)p.r(A)p.r(A)p.d(T)p.d(T)}|RNA2{r(U)p.r(U)p.r(G)p.r(A)p.r(G)p.r(C)p.r(G)p.r(A)p.r(U)p.r(G)p.r(G)p.r(U)p.r(C)p.r(C)p.r(C)p.r(A)p.r(C)p.r(C)p.r(A)p.d(G)p.d(G)}$$$RNA1{StrandType:ss}|RNA2{StrandType:as}$	71.2%
RNA1{r(A)p.r(C)p.r(C)p.r(C)p.r(C)p.r(A)p.r(G)p.r(C)p.r(A)p.r(A)p.r(A)p.r(C)p.r(A)p.r(C)p.r(A)p.r(U)p.r(U)p.r(A)p.r(U)p.d(T)p.d(T)}|RNA2{r(A)p.r(U)p.r(A)p.r(A)p.r(U)p.r(G)p.r(U)p.r(G)p.r(U)p.r(U)p.r(U)p.r(G)p.r(C)p.r(U)p.r(G)p.r(G)p.r(G)p.r(G)p.r(U)p.d(T)p.d(G)}$$$RNA1{StrandType:ss}|RNA2{StrandType:as}$	63.4%
RNA1{r(G)p.r(G)p.r(G)p.r(G)p.r(A)p.r(G)p.r(C)p.r(U)p.r(G)p.r(G)p.r(G)p.r(C)p.r(C)p.r(A)p.r(G)p.r(C)p.r(C)p.r(C)p.r(C)p.d(T)p.d(T)}|RNA2{r(G)p.r(G)p.r(G)p.r(G)p.r(C)p.r(U)p.r(G)p.r(G)p.r(C)p.r(C)p.r(C)p.r(A)p.r(G)p.r(C)p.r(U)p.r(C)p.r(C)p.r(C)p.r(C)p.d(G)p.d(G)}$$$RNA1{StrandType:ss}|RNA2{StrandType:as}$	19.2%
RNA1{r(C)p.r(C)p.r(C)p.r(G)p.r(C)p.r(C)p.r(A)p.r(A)p.r(G)p.r(A)p.r(C)p.r(A)p.r(C)p.r(C)p.r(U)p.r(U)p.r(U)p.r(G)p.r(A)p.d(T)p.d(T)}|RNA2{r(U)p.r(C)p.r(A)p.r(A)p.r(A)p.r(G)p.r(G)p.r(U)p.r(G)p.r(U)p.r(C)p.r(U)p.r(U)p.r(G)p.r(G)p.r(C)p.r(G)p.r(G)p.r(G)p.d(A)p.d(T)}$$$RNA1{StrandType:ss}|RNA2{StrandType:as}$	57.6%
